Measurements reported in patent US20040077687A1, “Thiazolmines and their use as tgf-beta inhibitors” (priority 2003, published 2004).

Experiments:
[1] = tested on: TGF-β signalling (PAI-1 promoter luciferase reporter in HepG2 cells); assay: Assay 1: PAI-1 promoter firefly luciferase reporter in HepG2 cells exposed to TGF-β; conditions: for IC50: Homo sapiens, HepG2, read-out: IC50 value in Assay 1
Method: The assay was performed in HepG2 cells stably transfected with the PAI-1 promoter (known to be a strong TGF-β responsive promoter) linked to a luciferase (firefly) reporter gene. The compounds were selected on their ability to inhibit luciferase activity in cells exposed to TGF-β. In addition cells were transfected with a second luciferase (Renilla) gene which was not driven by a TGF-β responsive promoter and was used as a toxicity control.
(96 well-)microplates are seeded, using a multidrop apparatus, with the stably transfected cell line at a concentration of 35000 cells per well in 200 μl of serum-containing medium. These plates are placed in a cell incubator.
18 to 24 hours later (Day 2), cell-incubation procedure is launched. Cells are incubated with TGF-β and a candidate compound (TGF-β inhibitor) at concentrations in the range 50 nM to 10 μM (final concentration of DMSO 1%). The final concentration of TGF-β (rhTGFβ1) used in the test is 1 ng/mL. […] The final volume of the test reaction is 150 μl. Each well contains only one candidate compound and its effect on the PAI-1 promoter is monitored.
Columns 11 and 12 are employed as controls. Column 11 contains 8 wells in which the cells are incubated in the presence of TGF-β, without a candidate compound. Column 11 is used to determine the ‘reference TGF-β induced firefly luciferase value’ against which values measured in the test wells (to quantify inhibitory activity) may be compared. In wells A12 to D12, cells are grown in medium without TGF-β. The firefly luciferase values obtained from these positions are representive of the ‘basal firefly luciferase activity’. In wells E12 to H12, cells are incubated in the presence of TGF-β and 500 μM CPO (Cyclopentenone, Sigma), a cell toxic compound.
12 to 18 hours later (day 3), the luciferase quantification procedure is launched. The following reactions are performed using reagents obtained from a Dual Luciferase Assay Kit (Promega). Cells are washed and lysed with the addition of 10 μl of passive lysis buffer (Promega). Following agitation (15 to 30 mins), luciferase activities of the plates are read in a dual-injector luminometer (BMG lumistar). For this purpose, 50 μl of luciferase assay reagent and 50 μl of ‘Stop & Glo’ buffer are injected sequentially to quantify the activities of both luciferases. The mean Luciferase activity value obtained in wells A11 to H11 (Column 11, TGF-βonly) is considered to represent 100% and values obtained in wells A12 to D12 (cells in medium alone) give a basal level (0%). For each of the compounds tested, a concentration response curve is constructed from which an IC50 value can be determined graphically.

SMILES | IC50 [1] [µM] | melting point [°C] | firefly and renilla luciferase activities relative to column 11 (TGF-β only); toxicity control ([1]; 500 μM CPO in the presence of TGF-β, HepG2 reporter cells)
Nc1nc(-c2ccccn2)c(-c2ccnc(-c3ccc(F)cc3)c2)s1 [Example 3, 5-[2-(4-Fluorophenyl)pyridin-4-yl]-4-pyridin-2-yl-1,3-thiazol-2-amine] | ≤ 5 | 250 | 
COc1ccc(-c2cc(-c3sc(N)nc3-c3ccccn3)ccn2)cc1 [Example 2, 5-[2-(4-Methoxyphenyl)pyridin-4-yl]-4-pyridin-2-yl-1,3-thiazol-2-amine] | ≤ 5 | 222 | 
Nc1nc(-c2ccccn2)c(-c2ccnc(-c3ccsc3)c2)s1 [Example 6, 5-[2-(Thiophen-3-yl)pyridin-4-yl]-4-pyridin-2-yl-1,3-thiazol-2-amine] | ≤ 5 | 244 | 
CCc1ccc(-c2cc(-c3sc(N)nc3-c3ccccn3)ccn2)cc1 [Example 4, 5-[2-(4-Ethylphenyl)pyridin-4-yl]-4-pyridin-2-yl-1,3-thiazol-2-amine] | ≤ 5 | 238 | 
CCOc1ccc(-c2cc(-c3sc(N)nc3-c3ccccn3)ccn2)cc1 [Example 5, 5-[2-(4-Ethoxyphenyl)pyridin-4-yl]-4-pyridin-2-yl-1,3-thiazol-2-amine] | ≤ 5 | 246 | 
O=C1C=CCC1 [CPO, Cyclopentenone, reference compound] |  |  | around 50%
Nc1nc(-c2ccccn2)c(-c2ccnc(-c3ccc(Cl)cc3)c2)s1 [Example 1, 5-[2-(4-Chlorophenyl)pyridin-4-yl]-4-pyridin-2-yl-1,3-thiazol-2-amine] | ≤ 5 | 256 to 257 | 
